From patent US20060160837A1, “Rapamycin compounds in the treatment of neurofibromatosis type 1” (The Brigham and Women's Hospital, Inc., priority 2004, published 2006)

Assays:
[1] = system: S6K1 phosphorylation at T-389 (readout of mTOR activation); test: S6K1 (T-389) phosphorylation immunoblot in serum-starved Nf1-deficient MEFs; format: cell-based, mouse; settings: serum-deprived Nf1-null MEFs; pre-treatment 30 min; 20 nM rapamycin, 200 nM wortmannin, U0126
[2] = system: tuberin phosphorylation at T-1462 and S-939; test: Tuberin phosphorylation at T-1462 and S-939, immunoblot in serum-starved Nf1-deficient cells; format: cell-based, mouse; settings: 200 nM wortmannin or U0126
[3] = system: S6K1 phosphorylation in NF1-/- Schwann cells; test: S6K1 phosphorylation immunoblot in neurofibroma-derived NF1-/- Schwann cells; format: cell-based; settings: NF1-/- Schwann cells from human cutaneous and plexiform neurofibromas
Procedure: Litter-mate matched MEFs or NIH3T3 cells were plated in serum-free media at a density of 1.0×10^6 cells/10-cm plate. After 18 hours, 200 nM insulin or 6 μM LPA was added. Where indicated, cells were pre-treated with DMSO, 20 nM rapamycin (Calbiochem), 200 nM Wortmannin (Sigma-Aldrich), or indicated concentrations of U0126 (Calbiochem) for 30-min. For amino acid withdrawal studies, cells were washed and media was replaced with D-PBS for the indicated times. Following stimulation, cells were lysed in 1% SDS boiling lysis buffer. Neurofibroma-derived patient matched NF1^+/− and NF1^−/− Schwann cells were isolated and cultured as previously described (Rosenbaum, et al., J. Neurosci. Res. 61:524-532 (2000); Serra, et al., Hum. Mol. Genet. 9:3055-3064 (2000)). Schwann cells were seeded at a concentration of 2.5×10^5 cells/6-cm plate in DMEM containing 0.1% serum without forskolin, insulin or heregulin and lysed as described above. […] Clarified lysates were normalized for protein levels and analyzed by Western blotting with the following antibodies: Phospho-p70S6K(T-389), Phospho-Tuberin (S-939), Phospho-Tuberin (T-1462), Phospho-Akt(S-473), Phospho-p44/42 Erk (T-202/Y-204) (Cell Signaling Technologies), Tuberin (C-20) (Santa Cruz Biotechnology), Protein Kinase Bα/AKT1, Actin, β-Tubulin (Sigma-Aldrich) and avian p90RSK1. […]

[4] = system: tuberin phosphorylation at S-1798; test: Phosphorylation of immunoprecipitated tuberin at S-1798 in serum-starved Nf1-deficient MEFs; format: cell-based, mouse
[5] = system: MPNST cell lines from NF1 patients; test: MPNST proliferation studies (live cell count, trypan blue exclusion); format: cell-based; settings: Homo sapiens, 168 h; two MPNST cell lines from two NF1 patients; 7 days; rapamycin 0.01-100 nM

| SMILES | aberrant activation (phosphorylation) of S6K1 [1] | tuberin phosphorylation at T-1462 and S-939 [2] | S6K1 phosphorylation [3] | tuberin phosphorylation at S-1798 (basophilic RXRXXpS/T site) [4] | IC50 [5] [nM] |
| --- | --- | --- | --- | --- | --- |
| N#CC(=C(/N)Sc1ccccc1N)/C(C#N)=C(\N)Sc1ccccc1N [U0126] | suppressed S6K1 phosphorylation in these cells to a similar extent | no effect | blocked | suppressed |  |
| CO[C@H]1C[C@@H]2CC[C@@H](C)[C@@](O)(O2)C(=O)C(=O)N2CCCC[C@H]2C(=O)O[C@H]([C@H](C)C[C@@H]2CC[C@@H](O)[C@H](OC)C2)CC(=O)[C@H](C)/C=C(\C)[C@@H](O)[C@@H](OC)C(=O)[C@H](C)C[C@H](C)/C=C/C=C/C=C/1C [rapamycin] |  |  |  |  | 1 to 10 |
